# Measurements taken from patent US9617264B2, “2,7-diazaspiro[3.5]nonane compounds” (REMYND NV, priority 2014, dated 2017).
# Legend:
# INS-1E cells = assay: Cytokine-induced apoptosis (caspase-3/7 activation, Caspase-Glo 3/7) in INS-1E rat insulinoma cells; assay type: cell-based; conditions: cytokine mix (IFN-γ, IL-1, TNF-α), 24 hours, caspase 3/7 activity, read-out: CYT EC50
# Source text: The INS-1E cell line, a rat insulinoma cell line, has been characterized extensively. INS-1E cells respond to glucose by secreting insulin and, unlike most other immortalized n-cell lines, they do this in a consistent manner over time. The cells are sensitive to hyperglycemia-, free fatty acid (FFA)-, and cytokine-induced stress. Prolonged stress ultimately leads to induction of apoptotic pathways and, if stress is not counter-acted, to apoptosis. Caspase-3 and -7 play a central role downstream where various apoptotic pathways merge. As such, activation (i.e. cleavage) of these caspases forms a relevant primary read-out to evaluate protective activity of compounds against stress-induced apoptosis.
# To evaluate the efficacy of different compounds to prevent induction of apoptosis, an in vitro screen was developed in which INS-1E cells were exposed to a cytokine mix (IFN-γ, 5 ng/ml; IL-1, 20 pg/ml; TNF-α, 0.25 ng/ml). The degree of induction of apoptosis was evaluated using a substrate for cleaved caspase-3 and -7, i.e. a proluminescent caspase-3/7 DEVD aminoluciferin substrate with a thermostable luciferase (Caspase-Glo® 3/7 assay; Promega, cat. G8092).
# On day 0, INS-1E cells were plated in a white-walled 96-well microplate (Greiner, cat. 655098) at 20,000 cells per well in 100 μl complete medium (RPMI containing 11 mM glucose supplemented with 5% FCS, 100 IU/ml penicillin, 100 μg/ml streptomycin, 10 mM HEPES, 1 mM Sodium Pyruvate and 50 μM 2-Mercapto-ethanol). On day 2, 100 μl medium containing cytokines and compound dissolved in DMSO was added to the cells. Wells without cytokines containing DMSO and wells with cytokines and DMSO were included to evaluate the degree of caspase 3/7 activation by the cytokine mix. After 24 hours exposure to cytokines and/or compound, Caspase-Glo® 3/7 reagent was added to the cells and caspase activity was determined by measuring luminescence.
# To evaluate compound efficacy, the “toxicity window” was calculated by subtracting caspase activity of wells without stressor from activity of wells with stressor but without compound. The amount of caspase activity in the latter wells was normalized to 1 and used as reference. Subsequently, caspase activity in the wells with stressor and varying concentrations of compound was calculated relative to the wells without compound. Plotting caspase activity vs the log 10 of the concentration of compound permitted calculation of the EC50 values for the compounds which typically lied between 0.0001 and 10 μM. Compounds with an EC50<10 μM were considered active.
# M17_3SYN cells = assay: Paraquat-induced cytotoxicity (LDH) in α-synuclein over-expressing M17_3SYN neuroblastoma cells; assay type: cell-based; conditions: Homo sapiens, Neuroblastoma cell, 48 h, 6 mM Paraquat, 2 days, LDH toxicity inhibition, read-out: SYN EC50
# How it was run: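 Human BE-M17 neuroblastoma cells stably overexpressing wild-type human α-synuclein were challenged with 6 mM paraquat (final) for 2 days at 37° C in the presence of graded compound concentrations. Cytotoxicity was measured as released LDH relative to total LDH, and EC50 was derived from dose-inhibition curves.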
# db/db mice = assay: In vivo evaluation in db/db mice (type 2 diabetes model)
# Source text: For in vivo evaluation of compound efficacy, male BKS.Cg-+Leprdb/Leprdb/OlaHsd mice (db/db mice—Harlan) were used. The db/db phenotype results from a mutation in the leptin receptor gene, leading to a splice variant (Chen, Charlat et al. 1996; Lee, Proenca et al. 1996). The development of type 2 diabetes in db/db mice is associated with reduced insulin levels due to progressive β-cell failure following an initial period of hypersecretion of insulin. Since these mice develop type 2 diabetes in a manner related to pathology development in humans, and the model is accepted as in vivo model for evaluation of novel anti-diabetic treatments by the Food and Drug Administration (FDA, US), it is a highly relevant model for testing candidate drugs for efficacy.
# Compounds were administered intraperitoneal (IP) or oral (PO) at a dose of maximally 50 mg/kg. Mice were subjected to metabolic analysis weekly or bi-weekly. These tests included but were not limited to determination of fasting (5 hrs) and non-fasting blood glucose levels, plasma insulin levels, % glycated hemoglobin (HbA1c) levels, glucose tolerance test and insulin sensitivity test.
# Treatment with Cmpd045 at 15 mg/kg PO decreased body weight (FIG. 1A).
Structure (SMILES),EC50 (INS-1E cells),EC50 (M17_3SYN cells),"body weight (db/db mice; 15 mg/kg PO, non-fasted body weight, FIG. 1A)","Fasted blood glucose levels (db/db mice; fasted, FIG. 1B)","% HbA1c levels (db/db mice; treated for 4 weeks, FIG. 1C)"
"COc1ccc(S(=O)(=O)N2CCC3(CC2)CN(C(=O)C(C)(C)c2cccc(Cl)c2)C3)cc1 [Cmpd030, 2-(3-Chlorophenyl)-1-(7-((4-methoxyphenyl)sulfonyl)-2,7-diazaspiro[3.5]nonan-2-yl)-2-methylpropan-1-one]",134 nM,5 nM,–,–,–
"COc1ccc(S(=O)(=O)N2CCC3(CC2)CN(c2nc(CC(F)(F)F)ns2)C3)cc1 [Cmpd031, 5-(7-((4-Methoxyphenyl)sulfonyl)-2,7-diazaspiro[3.5]nonan-2-yl)-3-(2,2,2-trifluoroethyl)-1,2,4-thiadiazole]",149 nM,121 nM,–,–,–
"COc1ccc(S(=O)(=O)N2CC3(CCN(S(=O)(=O)c4ccc(OC(F)F)cc4)CC3)C2)cc1 [Cmpd045, 7-((4-(Difluoromethoxy)phenyl)sulfonyl)-2-((4-methoxyphenyl)sulfonyl)-2,7-diazaspiro[3.5]nonane]",12 nM,2 nM,decreased,significantly lower,reduced
"CC(=O)Nc1ccc(S(=O)(=O)N2CCC3(CC2)CN(c2nc(Cc4ccc(F)cc4)ns2)C3)cc1 [Cmpd058, N-(4-((2-(3-(4-fluorobenzyl)-1,2,4-thiadiazol-5-yl)-2,7-diazaspiro[3.5]nonan-7-yl)sulfonyl)phenyl)acetamide]",22 nM,290 nM,–,–,–
"CS(=O)(=O)c1cccc(S(=O)(=O)N2CCC3(CC2)CN(c2nc(Cc4ccc(F)cc4)ns2)C3)c1 [Cmpd082, 3-(4-Fluorobenzyl)-5-(7-((3-(methylsulfonyl)phenyl)sulfonyl)-2,7-diazaspiro[3.5]nonan-2-yl)-1,2,4-thiadiazole]",34 nM,477 nM,–,–,–
"O=S(=O)(c1cccs1)N1CCC2(CC1)CN(c1nc(Cc3ccc(F)cc3)ns1)C2 [Cmpd092, 3-(4-Fluorobenzyl)-5-(7-(thiophen-2-ylsulfonyl)-2,7-diazaspiro[3.5]nonan-2-yl)-1,2,4-thiadiazole]",18 nM,615 nM,–,–,–
